Data published in PubChem BioAssay (NCI).
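Where inhibition never reached the appropriate level, the endpoint shown equals the highest concentration tested. Otherwise, values were interpolated linearly from a five-concentration, 48-hour dose response in 96-well plates. GI50 = concentration required for 50% inhibition of growth. Definition used: TGI = concentration required for complete inhibition of growth.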

Key:
Test in all cases: NCI anticancer screen, dose series, 48 h
ACHN renal = test system: ACHN renal
BT-549 breast = test system: BT-549 breast
NCI-H226 lung = test system: NCI-H226 lung
NCI-H460 lung = test system: NCI-H460 lung
NCI-H522 lung = test system: NCI-H522 lung
SK-MEL-5 melanoma = test system: SK-MEL-5 melanoma
SR leukemia = test system: SR leukemia
U251 CNS = test system: U251 CNS
UO-31 renal = test system: UO-31 renal
MDA-MB-231 breast = test system: MDA-MB-231 breast

For `CC1CC(O)C(=O)C(O[C@@H]2C[C@@H]3CC[C@@H]4[C@H](CC[C@]5(C)C(C6=CC(=O)OC6)CC[C@]45O)[C@@]3(C=O)C[C@H]2O)O1` (stereo partly drawn), the TGI (ACHN renal) was 0.0406 µM, the TGI (BT-549 breast) was 0.126 µM and the TGI (NCI-H226 lung) was 0.228 µM. The TGI (NCI-H460 lung) was 0.0414 µM, the TGI (NCI-H522 lung) was < 0.0274 µM and the TGI (SK-MEL-5 melanoma) was 0.0174 µM. The TGI (SR leukemia) was 0.0792 µM, the TGI (U251 CNS) was < 0.0486 µM and the TGI (UO-31 renal) was 0.22 µM.
With `COc1c(C)n(CCO)ccc1=O` the TGI (ACHN renal) was > 100 µM, the TGI (NCI-H226 lung) was > 100 µM and the TGI (NCI-H460 lung) was > 100 µM. For the same compound, the TGI (NCI-H522 lung) was > 100 µM, the TGI (SK-MEL-5 melanoma) was > 100 µM and the TGI (SR leukemia) was > 100 µM. The TGI (U251 CNS) was > 100 µM and the TGI (UO-31 renal) was > 100 µM.
In the case of `CCOC(=O)NC(=O)c1cn(C(CC)COC(=O)NCCCCCCNC(=O)OCC(CC)n2cc(C(=O)NC(=O)OCC)c(=O)[nH]c2=O)c(=O)[nH]c1=O` (stereo not drawn), the TGI (ACHN renal) is reported as > 100 µM, the TGI (NCI-H226 lung) is reported as > 100 µM and the TGI (NCI-H460 lung) is reported as > 100 µM. The TGI (NCI-H522 lung) was > 100 µM, the TGI (SK-MEL-5 melanoma) was > 100 µM and the TGI (U251 CNS) was > 100 µM. The TGI (UO-31 renal) was > 100 µM.
With `Nc1nc(-c2ccc(Cl)c([N+](=O)[O-])c2)cs1` the TGI (ACHN renal) was > 100 µM, the TGI (NCI-H460 lung) was > 100 µM and the TGI (SK-MEL-5 melanoma) was > 100 µM. For the same compound, the TGI (U251 CNS) was > 100 µM and the TGI (UO-31 renal) was > 100 µM.
In the case of `COC(=O)C(=O)C(C(C)=O)C(=O)NCc1ccc(OC)c(OC)c1` (stereo not drawn), the TGI (ACHN renal) is reported as > 100 µM, the TGI (NCI-H226 lung) is reported as > 100 µM and the TGI (NCI-H460 lung) is reported as > 100 µM. The TGI (NCI-H522 lung) was > 100 µM, the TGI (SK-MEL-5 melanoma) was > 100 µM and the TGI (SR leukemia) was > 100 µM. The TGI (U251 CNS) was > 100 µM and the TGI (UO-31 renal) was > 100 µM.
With `O=c1[nH]cnc(NC2C=C(CO)C(O)C2O)c1[N+](=O)[O-]` (stereo not drawn) the TGI (ACHN renal) was > 100 µM, the TGI (NCI-H226 lung) was > 100 µM and the TGI (NCI-H460 lung) was > 58.2 µM. For the same compound, the TGI (NCI-H522 lung) was > 100 µM, the TGI (SK-MEL-5 melanoma) was > 100 µM and the TGI (SR leukemia) was > 100 µM. For the same compound, the TGI (U251 CNS) was > 100 µM and the TGI (UO-31 renal) was > 100 µM.
With `Cc1ccc(C)c(N2C/C(=N\NC(=O)CC#N)C(c3nc4ccccc4s3)C(=O)C2=O)c1` (stereo not drawn) the TGI (ACHN renal) was > 100 µM, the TGI (NCI-H226 lung) was > 100 µM and the TGI (NCI-H460 lung) was > 100 µM. For the same compound, the TGI (NCI-H522 lung) was > 100 µM, the TGI (SK-MEL-5 melanoma) was > 100 µM and the TGI (SR leukemia) was > 100 µM. For the same compound, the TGI (U251 CNS) was > 100 µM and the TGI (UO-31 renal) was > 100 µM.
With `N#CCCN1C/C(=C/c2ccc(Br)cc2)C(=O)/C(=C/c2ccc(Br)cc2)C1` the GI50 (ACHN renal) was 1.76 µM, the TGI (ACHN renal) was 3.37 µM and the GI50 (BT-549 breast) was 1.56 µM. It also gave a TGI (BT-549 breast) of 3.04 µM, a GI50 (MDA-MB-231 breast) of 2.95 µM and a TGI (MDA-MB-231 breast) of 11.4 µM. The GI50 (NCI-H522 lung) was 1.89 µM, the TGI (NCI-H522 lung) was 3.81 µM and the GI50 (SK-MEL-5 melanoma) was 1.58 µM. The TGI (SK-MEL-5 melanoma) was 2.93 µM, the GI50 (U251 CNS) was 0.409 µM and the TGI (U251 CNS) was 1.58 µM. For the same compound, the GI50 (UO-31 renal) was 1.47 µM and the TGI (UO-31 renal) was 2.92 µM.
`Cn1c(=O)nc2n(-c3cc(C(F)(F)F)cc(C(F)(F)F)c3)c3ccccc3nc-2c1=O` was tested, and the TGI (ACHN renal) was > 100 µM, the TGI (NCI-H226 lung) was > 100 µM and the TGI (NCI-H460 lung) was > 100 µM. For the same compound, the TGI (SK-MEL-5 melanoma) was 54.4 µM, the TGI (SR leukemia) was > 100 µM and the TGI (U251 CNS) was > 100 µM. The TGI (UO-31 renal) was > 100 µM.
For `CC(C(=O)c1ccc(Cl)cc1)/C(=N/NC(=O)NN)C(=O)Nc1cccc(C(F)(F)F)c1` (stereo not drawn), the TGI (ACHN renal) was > 100 µM, the TGI (NCI-H226 lung) was > 100 µM and the TGI (NCI-H460 lung) was > 100 µM. The TGI (SK-MEL-5 melanoma) was > 100 µM, the TGI (U251 CNS) was > 100 µM and the TGI (UO-31 renal) was > 100 µM.
In the case of `Nc1c(-c2ccccc2-c2c(N)[n+]([O-])c3ccccc3[n+]2[O-])[n+]([O-])c2ccccc2[n+]1[O-]`, the TGI (ACHN renal) is reported as > 100 µM, the TGI (NCI-H226 lung) is reported as > 100 µM and the TGI (NCI-H460 lung) is reported as 18.5 µM. The TGI (NCI-H522 lung) was 6.87 µM, the TGI (SK-MEL-5 melanoma) was 31 µM and the TGI (SR leukemia) was 37.3 µM. The TGI (U251 CNS) was > 100 µM and the TGI (UO-31 renal) was > 100 µM.
`CC1=C(C#N)C(=O)CC(c2ccc(Cl)cc2)N(C)N1` (stereo not drawn) was tested, and the TGI (ACHN renal) was > 100 µM, the TGI (NCI-H226 lung) was > 100 µM and the TGI (NCI-H460 lung) was > 100 µM. For the same compound, the TGI (NCI-H522 lung) was > 100 µM, the TGI (SK-MEL-5 melanoma) was > 100 µM and the TGI (SR leukemia) was > 100 µM. The TGI (U251 CNS) was > 100 µM.
With `CC(=O)N1CCN(c2ccc(OCC3COC(Cn4ccnc4)(c4ccc(Cl)cc4Cl)O3)cc2)CC1` (stereo not drawn) the TGI (ACHN renal) was > 100 µM, the TGI (NCI-H226 lung) was 73.6 µM and the TGI (NCI-H460 lung) was > 100 µM. For the same compound, the TGI (NCI-H522 lung) was 99.7 µM, the TGI (SK-MEL-5 melanoma) was 24.9 µM and the TGI (SR leukemia) was 66.5 µM. For the same compound, the TGI (UO-31 renal) was 91.9 µM.
In the case of `COc1ccc(-c2oc(/C=N/NC(N)=S)c([N+](=O)[O-])c2-c2ccc(OC)c(OC)c2)cc1OC`, the TGI (ACHN renal) is reported as 76.3 µM, the TGI (NCI-H226 lung) is reported as 62.4 µM and the TGI (NCI-H522 lung) is reported as 65.3 µM.
Compound `CCN1c2ccccc2-c2c3c1cc(C)cc3c1ccccc1[n+]2CC` has a TGI (ACHN renal) of 8.95 µM, a TGI (NCI-H226 lung) of 3.69 µM and a TGI (NCI-H460 lung) of 2.73 µM. It also gave a TGI (NCI-H522 lung) of 3.52 µM, a TGI (SK-MEL-5 melanoma) of 1.84 µM and a TGI (SR leukemia) of 5.21 µM. For the same compound, the TGI (U251 CNS) was 2.68 µM and the TGI (UO-31 renal) was 20.8 µM.
For `CN(C(=O)c1ccc([N+](=O)[O-])cc1)c1ccccc1`, the TGI (ACHN renal) was > 100 µM, the TGI (NCI-H226 lung) was > 100 µM and the TGI (NCI-H460 lung) was > 100 µM. For the same compound, the TGI (NCI-H522 lung) was > 100 µM, the TGI (U251 CNS) was > 100 µM and the TGI (UO-31 renal) was > 100 µM.
For `Cc1cccc(C2=C/C(=C(\SS/C(C(=O)c3ccc(OCC(=O)O)c(Cl)c3Cl)=C3\C=C(c4cccc(C)c4)SS3)C(=O)c3ccc(OCC(=O)O)c(Cl)c3Cl)SS2)c1`, the TGI (ACHN renal) was 37.7 µM, the TGI (NCI-H226 lung) was 35.6 µM and the TGI (NCI-H460 lung) was > 68.1 µM. For the same compound, the TGI (NCI-H522 lung) was 8.14 µM, the TGI (SK-MEL-5 melanoma) was 47.8 µM and the TGI (U251 CNS) was 14.3 µM. The TGI (UO-31 renal) was 32.2 µM.
In the case of `CCOP(=O)(OCC)C(C(=O)OC)C(=O)C(=O)Nc1ccc(Cl)cc1Cl` (stereo not drawn), the TGI (ACHN renal) is reported as > 100 µM, the TGI (NCI-H226 lung) is reported as > 100 µM and the TGI (NCI-H460 lung) is reported as > 100 µM. The TGI (NCI-H522 lung) was > 100 µM, the TGI (SK-MEL-5 melanoma) was > 100 µM and the TGI (U251 CNS) was > 100 µM. The TGI (UO-31 renal) was > 100 µM.
